From US9149465B2, “Isoxazolines as inhibitors of fatty acid amide hydrolase” (Infinity Pharmaceuticals, Inc., priority 2009, dated 2015) come the findings set out here.

The experiment has as its target T1, human FAAH (Homo sapiens, UniProt O00519).
T1 construct: host or cells: COS-7 cells, transient transfection; 13,000 g membrane fraction solubilised in 1% Triton X-100
T1 sequence (O00519 1-579): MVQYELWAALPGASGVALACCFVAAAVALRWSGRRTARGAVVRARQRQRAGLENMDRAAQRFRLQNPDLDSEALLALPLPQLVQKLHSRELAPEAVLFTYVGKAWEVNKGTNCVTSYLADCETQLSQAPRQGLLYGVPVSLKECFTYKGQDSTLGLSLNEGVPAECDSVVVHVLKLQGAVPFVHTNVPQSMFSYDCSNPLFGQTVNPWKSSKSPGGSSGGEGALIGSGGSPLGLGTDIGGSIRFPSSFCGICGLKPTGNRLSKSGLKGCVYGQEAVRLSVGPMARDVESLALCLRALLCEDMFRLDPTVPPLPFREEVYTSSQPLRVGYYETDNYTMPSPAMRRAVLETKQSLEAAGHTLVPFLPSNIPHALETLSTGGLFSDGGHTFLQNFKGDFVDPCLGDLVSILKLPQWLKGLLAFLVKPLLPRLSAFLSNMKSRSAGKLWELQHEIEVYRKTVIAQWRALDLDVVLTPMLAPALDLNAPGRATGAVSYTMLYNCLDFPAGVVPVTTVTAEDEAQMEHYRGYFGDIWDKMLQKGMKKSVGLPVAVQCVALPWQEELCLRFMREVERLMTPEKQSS
Briefly: Inhibition of human FAAH (AMC arachidonoyl amide fluorescence assay). It is filed as biochemical. The note with it: inhibitor preincubated 30 minutes at room temperature; 20 μM AMC arachidonoyl amide; 4 hours; read-out: Activity (Ki, inhibitors of human FAAH). In outline:
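Solubilized membrane fraction from COS-7 cells transiently expressing human FAAH (0.05 mg/mL final) preincubated 30 min at room temperature with 3-fold serially diluted inhibitor, then reacted 4 h at room temperature with 20 μM AMC arachidonoyl amide. Stopped with α-ketoheterocycle; fluorescence read. Ki from single-site competitive fit, Km fixed at 12 μM.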
One may read the Ki as the equilibrium dissociation constant of an inhibitor or competing ligand from its target. Take `Fc1cncc(OC2=NOC(c3ccc(Oc4ccccc4)cc3)C2)c1` (single isomer, unassigned) [I-43]: the inhibitory constant (Ki) was at most 100 nM.

With `Cc1nnc(-c2cncc(OC3=NOC(C)(c4ccc(OC(F)(F)F)cc4)C3)c2)o1` (racemic) [I-229], the inhibitory constant (Ki) is at most 100 nM.

For `Cc1nnc(-c2cc(F)cc(OC3=NOC(c4ccc(OC(F)(F)F)cc4)C3)c2)o1` (racemic) [I-224], the inhibition constant (Ki) is at most 100 nM.

As for `CS(=O)(=O)NC(=O)c1ccc(OC2=NOC(c3ccc(OC(F)(F)F)cc3)C2)cn1` (racemic) [I-220], the Ki is at most 100 nM.

Regarding `Fc1ccc(OC2=NOC(c3ccc(OC(F)(F)F)cc3)C2)cc1-c1nnco1` (racemic) [I-226], the Ki was at most 100 nM.

Consider `NC(=O)CNC(=O)c1ccc(OC2=NOC(c3ccc(OC(F)(F)F)cc3)C2)cn1` (racemic) [I-118], for which the Ki lay within 100 to 1000 nM.

For the compound `COc1ncc(OC2=NOC(c3ccc(Oc4ccccc4)cc3)C2)cn1` (racemic) [I-66], the Ki was at most 100 nM.

Consider `COc1cccc(C2CC(Br)=NO2)c1` (single isomer, unassigned) [I-7], for which the Ki lay within 100 to 1000 nM.

As for `Cc1ccc(OC2=NOC(c3ccc(Oc4ccccc4)cc3)C2)cc1F` (single isomer, unassigned) [I-31], the Ki is at least 1000 nM.

Consider `Cn1nc(C(F)(F)F)cc1OC1=NOC(c2ccc(Oc3ccccc3)cc2)C1` (racemic) [I-257], for which the Ki lay in the range of 100 to 1000 nM.

Consider `CC1(c2ccc(OC(F)(F)F)cc2)CC(Oc2ccc(C(=O)O)nc2)=NO1` (racemic) [I-113], for which the Ki is at most 100 nM.

On to `O=C(O)c1ccc(OC2=NOC(c3ccc(Br)cc3)C2)cn1` (racemic) [I-150], for which the Ki was at most 100 nM.

Take `Fc1ccccc1OC1=NOC(c2ccc(Oc3ccccc3)cc2)C1` (racemic) [I-59]: the inhibitory constant (Ki) was 100 to 1000 nM.

With `Cn1cc(-c2ccc(OC3=NOC(c4ccc(OC(F)(F)F)cc4)C3)cn2)cn1` (racemic) [I-218], the Ki is at most 100 nM.

For `O=C(OCc1ccccc1)c1ccc(C2CC(Br)=NO2)cc1` (single isomer, unassigned) [I-21], the Ki was at most 100 nM.

`CNC(=O)c1ccc([C@H]2CC(Br)=NO2)cc1` (racemic) [I-204]: the Ki lay in the range of 100 to 1000 nM.

Regarding `O=C(O)c1ccc(OC2=NOC(c3ccc(OC(F)(F)F)cc3)C2)cc1` (racemic) [I-177], the inhibition constant Ki is 100 to 1000 nM.

Turning to `CC(C)Oc1ccc([C@H]2CC(Oc3cncnc3)=NO2)cc1` (racemic) [I-141], the Ki is at most 100 nM.

In the case of `CCCCOc1ccc([C@H]2CC(Br)=NO2)cc1` (racemic) [I-20], the Ki is at most 100 nM.

Regarding `c1cncc(OC2=NOC(c3ccc(Oc4cccnc4)cc3)C2)c1` (racemic) [I-87], the Ki is at most 100 nM.

Consider `CS(=O)(=O)c1ccc(OC2=NO[C@@H](c3ccc(Br)cc3)C2)cn1` (racemic) [I-237], for which the inhibition constant Ki is at most 100 nM.

Take `COc1ccc([C@@H]2ON=C(Br)[C@H]2C)cc1` (racemic) [I-77]: the inhibition constant (Ki) is at least 1000 nM.

Turning to `CN(C)S(=O)(=O)c1ccc([C@H]2CC(Br)=NO2)cc1` (racemic) [I-206], the Ki was at most 100 nM.

Turning to `CCS(=O)(=O)c1ccc(OC2=NOC(c3ccc(OC(F)(F)F)cc3)C2)cn1` (racemic) [I-182], the inhibitory constant (Ki) is at most 100 nM.

Regarding `FC(F)(F)Oc1ccc(C2CC(Oc3cncnc3)=NO2)cc1` (racemic) [I-112], the Ki was at most 100 nM.

With `CC1(c2ccc(Oc3ccccc3)cc2)CC(Br)=NO1` (racemic) [I-76], the Ki is at most 100 nM.

In the case of `Cc1cc(-c2ccc(OC3=NOC(c4ccc(OC(F)(F)F)cc4)C3)cn2)n(C)n1` (racemic) [I-190], the Ki was at most 100 nM.

On to `c1ccc(NC2=NOC(c3ccc(Oc4ccccc4)cc3)C2)cc1` (single isomer, unassigned) [I-32], for which the Ki was at least 1000 nM.

`c1ccc(Oc2ccc(C3CC(Oc4cnc5cc[nH]c5c4)=NO3)cc2)cc1` (racemic) [I-57]: the Ki was at most 100 nM.

On to `CS(=O)(=O)c1ccc(OC2=NO[C@@H](c3ccc(C(=O)NCc4ccccc4)cc3)C2)cn1` (racemic) [I-214], for which the Ki is at most 100 nM.

For the compound `CNC(=O)c1ccc(OC2=NOC(C)(c3ccc(OC(F)(F)F)cc3)C2)cn1` (racemic) [I-114], the Ki was at most 100 nM.

As to `CC1(c2ccc(OC(F)(F)F)cc2)CC(Oc2cncc(-c3nnco3)c2)=NO1` (racemic) [I-228], the Ki was at most 100 nM.

For `FC(F)(F)c1ccc(OC2=NOC(c3ccc(Oc4ccccc4)cc3)C2)cn1` (racemic) [I-56], the Ki is at most 100 nM.

For the compound `COC(=O)c1ccc(OC2=NOC(c3ccc(OC(F)(F)F)cc3)C2)cn1` (racemic) [I-96], the Ki is at most 100 nM.

On to `CCOC(=O)c1cccc(-c2ccc(OC3=NOC(c4ccc(OC(F)(F)F)cc4)C3)cn2)c1` (racemic) [I-84], for which the Ki lay within 100 to 1000 nM.

For `CN(C1=NOC(c2ccc(OC(F)(F)F)cc2)C1)c1ccc(C(=O)O)cc1` (racemic) [I-255], the Ki was at least 1000 nM.
